Patent publication US20250145608A1, “KRAS DEGRADING COMPOUNDS COMPRISING ANNULATED 2-AMINO-3-CYANO THIOPHENES” (Boehringer Ingelheim Int'l GmbH Corp., priority 2021, published 2025)

Legend:
Assay type in all cases: cell-based
GP5d cells = experiment: GP5d cell proliferation assay (colorectal cancer, G12D), 5 days; details: Homo sapiens, 120 h
How it was run: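 Cells in DMEM + 10% FCS received logarithmic compound dilutions (DMSO-normalized) and were grown for 5 days. Viability read by CellTiter-Glo luminescence as percent of DMSO controls, with a T0 reading at compound addition; IC50 from a four-parameter logistic fit.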

KRAS4B G12C = molecular target: T1, KRAS4B G12C (Homo sapiens, UniProt P01116, G12C); experiment: HiBit KRAS4B mutant spectrum degradation assay, KRAS4B G12C in GP5d cells (18 h); details: KRAS mutation G12C
T1 construct: HiBit; expressed in transfected cells; host or cells: GP5d cells (ECACC 95090715), stably transduced with lentivirus, CMV promoter
Excerpt: (§1) The therapeutically relevant mutant KRAS constructs (WT, G12C, G12D, G12V, G13D) were obtained by site directed mutagenesis using a KRAS4B WT cDNA construct as a template. GP5d cells (ECACC Cat. No. 95090715) were transduced with lentiviral vectors expressing mutant KRAS4B cDNA under control of a CMV promoter. Stably transduced cells were selected using a neomycin selectable marker encoded on the construct.
(§2) To assess PROTAC-mediated degradation of various KRAS mutants, GP5d cells stably transduced with KRAS4B constructs as described above were seeded at 25000 cells per well in 100 μL Dulbecco's Modified Eagle medium (Sigma cat. no. D6429) supplemented with 10% fetal calf serum into white bottom opaque 96 well plates (Perkin Elmer cat no. 5680). Plates were incubated at 37° C., 5% CO2 in a humidified incubator over night to allow the cells to adhere. […] Plates were further incubated at 37° C. for 18 hours. Following incubation, 100 μL per well Promega Nano-Glo HiBit lytic detection reagent mix (Promega Nano-Glo HiBit Lytic Detection System #N3050), prepared according to the manufacturer's instructions in the kit, were added. To allow for adequate cell lysis, plates were incubated on an orbital shaker for 15 min and further incubated 30 min at room temperature. Upon completion of cell lysis, luminescence was measured using an Envision plate reader using the Ultrasensitive Luminescence Protocol for 96 well plates. Luminescence levels were normalized by the values obtained with DMSO-treated samples and plotted as percent of DMSO control. DC50 values were computed using a four parametric logistic model and are reported in nM in Table 65 for representative example (Ex.) compounds of the invention. Dmax values represent the maximal extent of degradation observed and is stated as percent of control (% Ctrl.) treatments in Table 66 for representative example (Ex.) compounds of the invention.

KRAS4B G13D = molecular target: T2, KRAS4B G13D (Homo sapiens, UniProt P01116, G13D); experiment: HiBit KRAS4B mutant spectrum degradation assay, KRAS4B G13D in GP5d cells (18 h); details: KRAS mutation G13D
T2 construct: HiBit; expressed in transfected cells; host or cells: GP5d cells (ECACC 95090715), stably transduced with lentivirus, CMV promoter
Excerpt: as §1, §2

T1 sequence (P01116 1-188 isoform P01116-2 G12C): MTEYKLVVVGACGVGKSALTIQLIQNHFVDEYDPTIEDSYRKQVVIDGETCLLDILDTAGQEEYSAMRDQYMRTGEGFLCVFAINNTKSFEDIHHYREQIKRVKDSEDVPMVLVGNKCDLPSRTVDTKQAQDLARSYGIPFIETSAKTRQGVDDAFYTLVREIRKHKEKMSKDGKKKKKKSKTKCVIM
T2 sequence (P01116 1-188 isoform P01116-2 G13D): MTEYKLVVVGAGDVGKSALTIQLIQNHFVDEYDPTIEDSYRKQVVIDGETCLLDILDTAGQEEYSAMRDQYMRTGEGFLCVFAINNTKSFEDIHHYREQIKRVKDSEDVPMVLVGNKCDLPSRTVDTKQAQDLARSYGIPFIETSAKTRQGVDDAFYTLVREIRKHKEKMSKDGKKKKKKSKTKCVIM

SMILES | IC50 (GP5d cells) | DC50 (KRAS4B G12C) | Dmax at 18 h (KRAS4B G12C) | DC50 (KRAS4B G13D) | Dmax at 18 h (KRAS4B G13D)
Cc1ncsc1-c1ccc(CNC(=O)[C@@H]2C[C@@H](O)CN2C(=O)[C@H](c2cc(OCCCN3CCCN(c4nccc(-c5noc([C@@]6(C)CCCc7sc(N)c(C#N)c76)n5)n4)[C@@H](C)C3)no2)C(C)C)cc1 (single isomer, unassigned) [I-24] | 766 nM |  |  |  | 
Cc1ncsc1-c1ccc(CNC(=O)[C@@H]2C[C@@H](O)CN2C(=O)[C@@H](c2cc(OCCCCN3CCCN(c4nccc(-c5noc([C@@]6(C)CCCc7sc(N)c(C#N)c76)n5)n4)[C@@H](C)C3)no2)C(C)C)cc1 (single isomer, unassigned) [I-27] | 4 nM | 3.7 nM | 83 % Ctrl. | 1.6 nM | 93 % Ctrl.
Cc1ncsc1-c1ccc(CNC(=O)[C@@H]2C[C@@H](O)CN2C(=O)C(c2cc(OCCCCN3CCCN(c4nccc(-c5cc([C@@]6(C)CCCc7sc(N)c(C#N)c76)on5)n4)[C@@H](C)C3)no2)C(C)C)cc1 (some centres unmarked) [I-4] | 36.1 nM |  |  |  | 
Cc1ncsc1-c1ccc([C@H](CO)NC(=O)[C@@H]2C[C@@H](O)CN2C(=O)[C@H](C(C)C)n2cc(OC(C)CCCN3CCCN(c4nccc(-c5noc([C@@]6(C)CCCc7sc(N)c(C#N)c76)n5)n4)[C@@H](C)C3)nn2)cc1 (some centres unmarked) [I-31] |  | 3.6 nM | 94.7 % Ctrl. | 2.7 nM | 89.7 % Ctrl.

The remaining lines, values ahead:

IC50 (GP5d cells) | DC50 (KRAS4B G12C) | Dmax at 18 h (KRAS4B G12C) | DC50 (KRAS4B G13D) | Dmax at 18 h (KRAS4B G13D) | SMILES
3.97 nM | 1.9 nM | 92.5 % Ctrl. | 2.5 nM | 94 % Ctrl. | Cc1ncsc1-c1ccc(CNC(=O)[C@@H]2C[C@@H](O)CN2C(=O)[C@@H](c2cc(OCCCN3CCCN(c4nccc(-c5noc([C@@]6(C)CCCc7sc(N)c(C#N)c76)n5)n4)[C@@H](C)C3)no2)C(C)C)cc1 (single isomer, unassigned) [I-25]
 | 1.2 nM | 96.2 % Ctrl. | 0.8 nM | 89.7 % Ctrl. | Cc1ncsc1-c1ccc([C@@H](NC(=O)[C@@H]2C[C@@H](O)CN2C(=O)[C@H](C(C)C)n2cc(OCCCCN3CCCN(c4nccc(-c5noc([C@@]6(C)CCCc7sc(N)c(C#N)c76)n5)n4)[C@@H](C)C3)nn2)[C@H](C)O)cc1 (single isomer, unassigned) [I-41]
 | 1.1 nM | 95.6 % Ctrl. | 1.1 nM | 90.4 % Ctrl. | Cc1ncsc1-c1ccc([C@@H](NC(=O)[C@@H]2C[C@@H](O)CN2C(=O)[C@H](C(C)C)n2cc(OCCCN3CCCN(c4nccc(-c5noc([C@@]6(C)CCCc7sc(N)c(C#N)c76)n5)n4)[C@@H](C)C3)nn2)[C@H](O)C(C)C)cc1 (single isomer, unassigned) [I-43]
 | 1.4 nM | 95.6 % Ctrl. | 1.2 nM | 89.7 % Ctrl. | Cc1ncsc1-c1ccc([C@H](CO)NC(=O)[C@@H]2C[C@@H](O)CN2C(=O)[C@H](C(C)C)n2cc(OCCCCN3CCCN(c4nccc(-c5noc([C@@]6(C)CCCc7sc(N)c(C#N)c76)n5)n4)[C@@H](C)C3)nn2)cc1 [I-29]
 | 1.2 nM | 95.6 % Ctrl. | 1 nM | 91.9 % Ctrl. | Cc1ncsc1-c1ccc([C@H](CO)NC(=O)[C@@H]2C[C@@H](O)CN2C(=O)[C@H](C(C)C)n2cc(OCCCC(C)N3CCCN(c4nccc(-c5noc([C@@]6(C)CCCc7sc(N)c(C#N)c76)n5)n4)[C@@H](C)C3)nn2)cc1 (some centres unmarked) [I-30]
